Columns and labels:
BACE1 [1] = biological target: T1, BACE1 (Homo sapiens (Human), UniProt P56817); assay: In vitro enzymatic BACE1 FRET assay; assay type: biochemical; settings: pH 4.5, 1 h pre-incubation, read-out: BACE1 Enzyme IC50
Description: (§1) In Vitro Enzymatic BACE1 and BACE2 FRET (Fluorescence Resonance Energy Transfer) Assays
(§2) The cDNAs for both human recombinant BACE1 and 2 with C-terminal 6-His Tags were cloned into transient protein expression vectors, which were subsequently transfected into mammalian cell lines. These recombinant proteins were further purified using Ni-NTA affinity chromatography (Qiagen). The assay buffer used in these screens was 0.05 M acetate, pH 4.5, 8% DMSO final, 100 μM genapol (which is a nonionic detergent, below its Critical Micelle Concentration). The β-secretase enzyme (0.02 nM for BACE1 and 0.64 nM for BACE2), which was pre-incubated for one hour with the test compound, typically in about luL of DMSO according to a serial dilution, was added thereto. The assay was effectively started by the addition of FRET substrate (50 nM) and the combination was incubated for one hour. The FRET assay was terminated by the addition of tris buffer, which raised the pH to neutrality, and the fluorescence was determined. The FRET substrate was a peptide with commercially available fluorophore and quencher, on opposite sides of the BACE cleavage site. The specific FRET substrate used in this assay was made by Amgen in-house. Commercially available FRET substrates, for example, the FRET substrate offered with the BACE1 FRET Assay Kit sold by ThermoFisher Scientific (Catalog Number P2985), may be used in this assay with the appropriate modifications, which are within the purview of the ability of a person with ordinary skill in the art. Proteolytic cleavage of the FRET substrate released quenching of fluorescence (excitation 488 nm and emission 590 nm).
Target sequence in this assay (P56817 46-501): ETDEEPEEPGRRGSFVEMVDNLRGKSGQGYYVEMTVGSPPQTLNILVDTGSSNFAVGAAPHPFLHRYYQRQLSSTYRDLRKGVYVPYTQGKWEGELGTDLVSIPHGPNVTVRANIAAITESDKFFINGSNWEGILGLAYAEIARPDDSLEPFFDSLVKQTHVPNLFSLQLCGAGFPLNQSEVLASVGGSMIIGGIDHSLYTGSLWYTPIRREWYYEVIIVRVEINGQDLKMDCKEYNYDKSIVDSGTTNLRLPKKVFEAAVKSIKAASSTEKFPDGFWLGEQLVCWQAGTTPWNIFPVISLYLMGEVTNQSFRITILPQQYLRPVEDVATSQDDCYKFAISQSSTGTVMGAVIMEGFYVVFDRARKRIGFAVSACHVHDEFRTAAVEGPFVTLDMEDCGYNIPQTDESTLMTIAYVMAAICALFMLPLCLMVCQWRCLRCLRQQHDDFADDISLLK

BACE1 [2] = biological target: T1, BACE1; assay: In vitro BACE1 cell-based assay (Aβ40 in conditioned medium, HTRF); settings: Aβ40 in conditioned medium of cells stably expressing APP, 24 h
Description: In Vitro BACE1 Cell-Based Assay
The cell-based assay measures inhibition or reduction of Aβ40 in conditioned medium of test compound treated cells expressing amyloid precursor protein. Cells stably expressing Amyloid Precursor Protein (APP) were plated at a density of 45K cells/well in 384 well plates (Corning/BioCoat 354663). The test compounds were then added to cells in 22-point dose response concentrations with the starting concentration being 62.5 μM. The compounds were diluted from stock solutions in DMSO and the final DMSO concentration of the test compounds on cells was 0.625%. The cells were cultivated overnight at 37° C. and 5% CO2 in DMEM supplemented with 10% FBS. After 24 h of incubation with the test compounds, the conditioned media was collected and the Aβ40 levels were determined using HTRF (Homogeneous Time Resolved Fluorescence). The IC50 of the compound was calculated from the percent of control or percent inhibition of Aβ 40 as a function of the concentration of the test compound.
The HTRF to detect Aβ40 was performed in 384 well plates (Costar 3658). The antibody pair that were used to detect Aβ 40 from cell supernatants were ConfAb40 antibody (Amgen in-house) and biotinylated 6E10 (BIOLEGEND). As an alternative to ConfAb40, a commercially available antibody, Anti-beta Amyloid 1-40 antibody [BDI350] from Abcam, Cambridge, Mass. 02139-1517 (Product code: ab20068), may be used in this assay. The concentrations were 0.35 μg/mL of ConfAb40 antibody and 1.33 μg/mL of 6E10-biotinylated antibody, as well as 4.5 μg/mL of Streptavidin Allophycocyanin Conjugate (ThermoFisher Scientific) in HTRF Buffer (1M Hepes pH 7.5, 1M NaCL, 1% BSA, 0.5% Tween 20).
The conditioned media was incubated with above antibodies and Streptavidin Allophycocyanin Conjugate for 30-60 minutes at 23° C. The final readout was performed on Envision from PerkinElmer.
Target sequence in this assay (P56817 46-501, species assumed): as the sequence (P56817 46-501) above

human recombinant BACE2 = human recombinant BACE2 (Homo sapiens (Human), UniProt Q9Y5Z0); assay: In vitro enzymatic BACE2 FRET assay; assay type: biochemical; settings: pH 4.5, 1 h pre-incubation, read-out: BACE2 Enzyme IC50
Chain of human recombinant BACE2 (Q9Y5Z0 63-518): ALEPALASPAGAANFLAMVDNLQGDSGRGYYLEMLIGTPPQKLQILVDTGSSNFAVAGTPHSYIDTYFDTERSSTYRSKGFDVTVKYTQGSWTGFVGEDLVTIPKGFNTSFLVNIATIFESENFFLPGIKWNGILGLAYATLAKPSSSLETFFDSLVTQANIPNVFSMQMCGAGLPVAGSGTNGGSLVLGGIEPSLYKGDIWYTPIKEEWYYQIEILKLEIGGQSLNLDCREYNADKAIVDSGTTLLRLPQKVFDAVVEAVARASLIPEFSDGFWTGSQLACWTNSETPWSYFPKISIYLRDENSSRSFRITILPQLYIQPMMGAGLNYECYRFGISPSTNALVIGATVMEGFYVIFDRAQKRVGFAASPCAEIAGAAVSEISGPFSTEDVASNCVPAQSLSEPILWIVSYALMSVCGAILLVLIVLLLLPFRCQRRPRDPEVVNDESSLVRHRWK
Description: as §1, §2

Recombinant CatD = Recombinant CatD (Homo sapiens (Human), UniProt P07339); assay: In vitro enzymatic Cathepsin D (CatD) FRET assay; assay type: biochemical; settings: pH 3.5, 1 h pre-incubation, read-out: Cat D Enzyme IC50
Chain of Recombinant CatD (P07339 65-412): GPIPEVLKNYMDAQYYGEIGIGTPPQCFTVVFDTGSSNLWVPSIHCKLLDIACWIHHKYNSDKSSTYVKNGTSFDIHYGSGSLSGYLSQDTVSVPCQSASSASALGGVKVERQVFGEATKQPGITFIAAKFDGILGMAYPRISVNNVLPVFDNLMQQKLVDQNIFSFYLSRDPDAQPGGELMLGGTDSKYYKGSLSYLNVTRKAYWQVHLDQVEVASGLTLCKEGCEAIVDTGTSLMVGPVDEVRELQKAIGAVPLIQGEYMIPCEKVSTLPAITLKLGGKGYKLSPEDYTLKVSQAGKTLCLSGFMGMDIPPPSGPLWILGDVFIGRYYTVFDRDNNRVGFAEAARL
Description: In Vitro Enzymatic Cathepsin D (CatD) FRET Assay Recombinant CatD was expressed in CHO cells. The assay buffer for CatD was 0.05 M citrate pH 3.5, 10% DMSO final, 5 mM CHAPS. The CatD enzyme (9 nM) was pre-incubated for one hour with inhibitors, typically in about luL of DMSO according to a serial dilution, is added thereto. The assays was effectively started by the addition of different FRET substrates (20 nM for CatD) and the combination was incubated for one hour. The FRET assay was terminated with by addition of tris buffer, which raises the pH to neutrality, and the fluorescence was determined. The FRET substrate was a peptide with commercially available fluorophore and quencher, on opposite sides of the CatD cleavage site. The CatD substrate peptide sequence was based on sequence #1 of Table 1 from Gulnik et al., FEBS Lett. 413(2):379-384 (1997). Proteolytic cleavage of the FRET substrate released quenching of fluorescence (CatD excitation 500 nm and emission 580 nm). The in vitro CatD FRET assay data for each of the Examples is provided in Table 2, conducted by the first procedure described above. […] Thus, with this surprising selectivity profile, the compounds provided herein are believed to minimize, reduce or completely eliminate any risk of retinal atrophy and abnormal development of the eye and of the retinal pigmented epithelium as it relates to the normal function and activity of CatD.

SMILES	IC50 (BACE1 [1]) [nM]	IC50 (BACE1 [2]) [nM]	IC50 (human recombinant BACE2) [nM]	IC50 (Recombinant CatD) [nM]
COC(=O)[C@@]1(C)C[C@@](C)(c2cc(/C=C(\F)c3ccc(C#N)cn3)ccc2F)N=C(N)S1 [Example 108, (4S,6R)-methyl 2-amino-4-(5-((Z)-2-(5-cyanopyridin-2-yl)-2-fluorovinyl)-2-fluorophenyl)-4,6-dimethyl-5,6-dihydro-4H-1,3-thiazine-6-carboxylate]	16	44	231	386000
C[C@@]1(c2cc(/C=C(\F)c3ccc(Cl)cn3)ccc2F)C=CSC(N)=N1 [Example 100, (S,Z)-4-(5-(2-(5-chloropyridin-2-yl)-2-fluorovinyl)-2-fluorophenyl)-4-methyl-4H-1,3-thiazin-2-amine]	220	357	191	36900
COC(=O)[C@]1(C)C[C@@](C)(c2cc(/C=C(\F)c3ccc(Cl)cn3)ccc2F)N=C(N)S1 [Example 106, (4S,6S)-methyl 2-amino-4-(5-((Z)-2-(5-chloropyridin-2-yl)-2-fluorovinyl)-2-fluorophenyl)-4,6-dimethyl-5,6-dihydro-4H-1,3-thiazine-6-carboxylate]	54	215	75	91000
C#CCOc1cnc(/C(F)=C/c2ccc(F)c([C@]3(C)C[C@@](C)(C(=O)NCC(F)F)SC(N)=N3)c2)cn1 [Example 115, (4S,6S)-2-amino-N-(2,2-difluoroethyl)-4-(2-fluoro-5-((Z)-2-fluoro-2-(5-(prop-2-yn-1-yloxy)pyrazin-2-yl)vinyl)phenyl)-4,6-dimethyl-5,6-dihydro-4H-1,3-thiazine-6-carboxamide]	24	18	760	40200
C[C@@]1(C(=O)N2CCOCC2)C[C@@](C)(c2cc(/C=C(\F)c3ccc(C#N)cn3)ccc2F)N=C(N)S1 [Example 110, 6-((Z)-2-(3-((4S,6S)-2-amino-4,6-dimethyl-6-(morpholine-4-carbonyl)-5,6-dihydro-4H-1,3-thiazin-4-yl)-4-fluorophenyl)-1-fluorovinyl)nicotinonitrile]	4	2	130	250000
C[C@@]1(c2cc(/C=C(\F)c3ccc(C#N)cn3)ccc2F)CCSC(N)=N1 [Example 103, (S,Z)-6-(2-(3-(2-amino-4-methyl-5,6-dihydro-4H-1,3-thiazin-4-yl)-4-fluorophenyl)-1-fluorovinyl)nicotinonitrile]	74	15	482	186000
C#CCOc1cnc(/C(F)=C/c2ccc(F)c([C@]3(C)C[C@@](C)(C(=O)NC)SC(N)=N3)c2)cn1 [Example 113, (4S,6S)-2-amino-4-(2-fluoro-5-((Z)-2-fluoro-2-(5-(2-propyn-1-yloxy)-2-pyrazinyl)ethenyl)phenyl)-N,4,6-trimethyl-5,6-dihydro-4H-1,3-thiazine-6-carboxamide]	22	10	835	178000
COC(=O)[C@@H]1C[C@@](C)(c2cc(/C=C(\F)c3ccc(Cl)cn3)ccc2F)N=C(N)S1 (single isomer, unassigned) [Example 105]	45	377	49	73700
COC(=O)[C@H]1C[C@@](C)(c2cc(/C=C(\F)c3ccc(Cl)cn3)ccc2F)N=C(N)S1 (single isomer, unassigned) [Example 104]	212	468	185	133000
COC(=O)[C@@]1(C)C[C@@](C)(c2cc(/C=C(\F)c3ccc(Cl)cn3)ccc2F)N=C(N)S1 [Example 107, (4S,6R)-methyl 2-amino-4-(5-((Z)-2-(5-chloropyridin-2-yl)-2-fluorovinyl)-2-fluorophenyl)-4,6-dimethyl-5,6-dihydro-4H-1,3-thiazine-6-carboxylate]	68	522	90	282000
C#CCOc1cnc(/C(F)=C/c2ccc(F)c([C@]3(C)C[C@](C)(C(=O)NC)SC(N)=N3)c2)cn1 [Example 112, (4S,6R)-2-amino-4-(2-fluoro-5-((Z)-2-fluoro-2-(5-(2-propyn-1-yloxy)-2-pyrazinyl)ethenyl)phenyl)-N,4,6-trimethyl-5,6-dihydro-4H-1,3-thiazine-6-carboxamide]	37	11	1300	79900
C[C@@]1(c2cc(/C=C(\F)c3ccc(Cl)cn3)ccc2F)CCSC(N)=N1 [Example 102, (S,Z)-4-(5-(2-(5-chloropyridin-2-yl)-2-fluorovinyl)-2-fluorophenyl)-4-methyl-5,6-dihydro-4H-1,3-thiazin-2-amine]	124	148	64	211000
C#CCOc1cnc(/C(F)=C/c2ccc(F)c([C@]3(C)C[C@@](C)(C(=O)N4CCOCC4)SC(N)=N3)c2)cn1 [Example 114, ((4S,6S)-2-amino-4-(2-fluoro-5-((Z)-2-fluoro-2-(5-(prop-2-yn-1-yloxy)pyrazin-2-yl)vinyl)phenyl)-4,6-dimethyl-5,6-dihydro-4H-1,3-thiazin-6-yl)(morpholino)methanone]	6	2	358	21800
C[C@]1(C(=O)N2CCOCC2)C[C@@](C)(c2cc(/C=C(\F)c3ccc(C#N)cn3)ccc2F)N=C(N)S1 [Example 111, 6-((Z)-2-(3-((4S,6R)-2-amino-4,6-dimethyl-6-(morpholine-4-carbonyl)-5,6-dihydro-4H-1,3-thiazin-4-yl)-4-fluorophenyl)-1-fluorovinyl)nicotinonitrile]	98	201	1470	300000
COC(=O)[C@]1(C)C[C@@](C)(c2cc(/C=C(\F)c3ccc(C#N)cn3)ccc2F)N=C(N)S1 [Example 109, (4S,6S)-methyl 2-amino-4-(5-((Z)-2-(5-cyanopyridin-2-yl)-2-fluorovinyl)-2-fluorophenyl)-4,6-dimethyl-5,6-dihydro-4H-1,3-thiazine-6-carboxylate]	16	24	281	95600
C[C@@]1(c2cc(/C=C(\F)c3ccc(C#N)cn3)ccc2F)C=CSC(N)=N1 [Example 101, (S,Z)-6-(2-(3-(2-amino-4-methyl-4H-1,3-thiazin-4-yl)-4-fluorophenyl)-1-fluorovinyl)nicotinonitrile]	98	49	601	52000

Reference: patent publication US10889579B2, “Thiazine derivatives as β-secretase inhibitors and methods of use” (AMGEN INC., priority 2016, dated 2021)
